{"source": "patent US7803825B2", "about": "“Aminoalkylazole derivatives as histamine-3 antagonists” (Wyeth LLC, priority 2007, dated 2010)", "note": "Structures can show the parent of a compound that is named as a salt.", "data": [{"molecular_target": "T1, histamine-3 (H3) receptor (Homo sapiens, UniProt Q9Y5N1)", "T1 construct": "expressed in transfected cells; host or cells: HEK293T", "T1 sequence (Q9Y5N1 whole entry)": "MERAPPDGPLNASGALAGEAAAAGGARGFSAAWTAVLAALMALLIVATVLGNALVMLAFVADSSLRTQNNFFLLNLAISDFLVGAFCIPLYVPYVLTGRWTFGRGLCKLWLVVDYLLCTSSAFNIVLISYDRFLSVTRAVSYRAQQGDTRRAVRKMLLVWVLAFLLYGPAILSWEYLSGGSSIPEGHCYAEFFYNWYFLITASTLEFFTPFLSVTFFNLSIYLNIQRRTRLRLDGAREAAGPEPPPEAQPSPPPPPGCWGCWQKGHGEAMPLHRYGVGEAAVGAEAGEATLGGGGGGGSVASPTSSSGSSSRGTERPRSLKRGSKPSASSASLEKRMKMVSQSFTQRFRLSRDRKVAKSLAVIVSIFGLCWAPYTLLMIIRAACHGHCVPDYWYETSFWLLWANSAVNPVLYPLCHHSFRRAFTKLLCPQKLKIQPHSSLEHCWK", "assay": "Methyl Histamine Binding in Human Histamine-3 Receptor Cell Line", "conditions": "membranes of stably transfected HEK293T cells, radioligand 1 nM, Ki from IC50 by Cheng-Prusoff", "description": "Evaluation of Methyl Histamine Binding in Human Histamine-3 Receptor Cell Line\nThe affinity of test compounds for the histamine-3 (H3) receptor is evaluated in the following manner. Stably transfected HEK293T cells are grown in DMEM containing 10% heat inactivated FBS and G-418 (500 ug/ml). Cells are scraped from the plate, transferred to centrifuge tubes, washed one time in PBS by centrifugation in a Sorvall RT7 Plus centrifuge (2000 rpm 10 minutes, 4° C.). The resulting pellets are stored at 80° C. until ready for use. Cells are re-suspended in buffer (50 mM Tris pH=7.5) and placed in a Dounce homogenizer, douncing ten times to homogenize cells. The homogenate is spun down by centrifugation (Sorvall RT7 Plus, 1800 rpm 10 minutes, 4° C.). The supernatant is placed in a Corex tube and spun down by centrifugation (Sorvall RC 5c Plus, 17,000 rpm 20 minutes, 4° C.). The pellet is resuspended in buffer (50 mM Tris, pH 7.5). Protein concentration (ug/ul) is determined using the Micro-BCA Protein Determination. The binding assay is set up in a 96 well microtiter plate in a total volume of 250 uL. Non-specific binding is determined in the presence of 10 uM clobenpropit. The final radioligand concentration is 1 nM. The test compound is serially diluted using the Beckman Biomek2000 to a final approximate range of 100 uM to 100 pM. Membranes are suspended in buffer, homogenized in 2 bursts of ten seconds using a Vitris mechanical homogenizer set at power setting 5. Ten μg of membranes are added to each well. Following a one hour incubation at 30° C., the reaction is terminated by the addition of ice cold buffer and rapid filtration with a Packard Filtermate Harvester through a GF/B filter pre-soaked with 1% PEI for one hour. The plate is dried for one hour at 37° C. and 60 μL Microscint Scintillant is added to each well. The CPM per well is measured on a Packard Top Count NXT. Ki values are determined in nM. The Ki is calculated from the IC50 (i.e. the concentration of competing ligand which displaces 50% of the specific binding of the radioligand). CPM values are expressed as % specific binding and plotted vs compound concentration. A curve is fitted using a four-parameter logistic fit and the IC50 value is determined. The Ki is calculated from this using the Cheng-Prusoff equation: […]=IC50/1+(L/Kd) where L=concentration of free radioligand used in the assay, and Kd is the dissociation constant of the radioligand for the receptor. L is determined for each experiment by counting an aliquot of the diluted radioligand (corresponding to that added to each well) and the Kd has previously been determined under identical conditions for this cell line/radioligand.", "units": {"Ki": "nM"}, "values": [{"smiles": "CCN(CC)Cc1cnc(-c2ccc(Cn3cnc4ccccc43)cc2)o1", "note": "[Example 113, N-({2-[4-(1H-benzimidazol-1-ylmethyl)phenyl]-1,3-oxazol-5-yl}methyl)-N-ethylethanamine]", "Ki": "> 100"}, {"smiles": "CC1CCN(Cc2coc(-c3ccc(Cn4cnc5ccccc54)cc3)n2)CC1", "note": "[Example 17]", "Ki": "≤ 10"}, {"smiles": "C[C@H]1CCCN1Cc1coc(-c2ccc(Cn3ncc4ccc(F)cc43)cc2)n1", "note": "[Example 99, 6-fluoro-1-[4-(4-{[(2S)-2-methylpyrrolidin-1-yl]methyl}-1,3-oxazol-2-yl)benzyl]-1H-indazole]", "Ki": "10.1 to 25"}, {"smiles": "CN1CCN(Cc2coc(-c3ccc(Cn4cnc5ccccc54)cc3)n2)CC1", "note": "[Example 11]", "Ki": "> 100"}, {"smiles": "C[C@@H]1CCCN1Cc1coc(-c2ccc(Cn3ncc4ccccc43)cc2)n1", "note": "[Example 94, 1-[4-(4-{[(2R)-2-methylpyrrolidin-1-yl]methyl}-1,3-oxazol-2-yl)benzyl]-1H-indazole]", "Ki": "50.1 to 100"}, {"smiles": "CN(C)Cc1coc(-c2ccc(Cn3cnc4ccccc43)cc2)n1", "note": "[Example 8]", "Ki": "10.1 to 25"}, {"smiles": "Cn1c(CN2CCCC2)cnc1-c1ccc(-n2cnc3ccccc32)cc1", "note": "[Example 151, 1-[4-(1-Methyl-5-pyrrolidin-1-ylmethyl-1H-imidazol-2-yl)-phenyl]-1H-benzoimidazole fumarate salt]", "Ki": "≤ 10"}, {"smiles": "CCN(CC)Cc1coc(-c2ccc(-n3cnc4ccccc43)cc2)n1", "note": "[Example 42, N-({2-[4-(1H-benzimidazol-1-yl)phenyl]-1,3-oxazol-4-yl}methyl)-N-ethylethanamine]", "Ki": "25.1 to 50"}, {"smiles": "C[C@@H]1CCCN1Cc1coc(-c2ccc(Cn3c(-c4ccccc4)nc4ccccc43)cc2)n1", "note": "[Example 119, 1-[4-(4-{[(2R)-2-methylpyrrolidin-1-yl]methyl}-1,3-oxazol-2-yl)benzyl]-2-phenyl-1H-benzimidazole]", "Ki": "10.1 to 25"}]}]}
